Assays:
[1] = tested on: IFN-β; assay: IFN-β ELISA on BMDM culture medium; type: cell-based, mouse; settings: 24 h after incubation; IFN-β induction much greater
Method: ELISA. Mouse high-sensitivity IFN-α ELISA kit (42115-1) and IFN-β ELISA kit (42410-1) were purchased from PBL Assay Science. Mouse CTX-I ELISA kit (AC-06F1) and mouse PINP ELISA kit (AC-33F1) were purchased from Immunodiagnostic Systems. ELISA was performed using culture medium, serum, and bone marrow lysates. Serum was obtained from whole blood that was collected from a submandibular vein via facial vein puncture, coagulated for 30 minutes at room temperature, followed by centrifugation (2,000 ×g for 10 min, 4° C.) and collection of the supernatant (serum). Bone marrow was homogenized in a lysis buffer containing protease inhibitors at 4° C. for 30 minutes. ELISA was conducted in accordance with the manufacturer's instructions. A standard curve was performed for each experiment.
In vitro induction of osteoclastogenesis and TRAP staining. For in vitro drug treatment, the RAW 264.7 cells were incubated with 35 ng/ml RANKL for six days. Isolated bone marrow cells were cultured overnight in α-MEM media containing 10% fetal bovine serum and 1% antibiotic-antimycotic solution. The suspended cells were collected and incubated with 20 ng/ml MCSF for 3 days to obtain bone marrow-derived macrophage (BMDM). The attached cells were further activated by 35 ng/ml RANKL and 20 ng/ml MCSF. Drug treatment was performed in tandem with RANKL. Culture medium and co-cultured reagents were changed every 3 days. […]

[2] = tested on: mice with CIPN or BCP; assay: Conditioned place preference (CPP) assay in chronic pain (CIPN and BCP) models; type: in vivo, mouse; settings: for conditioned place preference (ongoing pain): mice with CIPN or BCP, i.t.; for conditioned place preference, single pairing: mice with neuropathic pain (CIPN), i.t. 35 nmol
Method: (§1) All mice underwent 3 d of preconditioning habituation in a temperature- and humidity-controlled room under low-light conditions between 08:00-16:00 in a two compartment CPP chamber (Med Associates Inc.). The two compartments differed by both visual and tactile cues. On the 4th day, animal behavior was video-recorded using a webcam connected to a laptop computer, and animal movement was automatically tracked for 15 minutes using the ANY-Maze software (Stoelting). […] On the conditioning day(s) (day 5 for single trial; day 5-7 for repeated trials), two pairing sessions were performed, with vehicle pairing in the AM session and drug treatment (e.g., vehicle or drug) in the PM session, separated by 4 h. In the AM session, mice always received vehicle (10 μl saline, delivered via i.t. injection under isoflurane anesthesia) and were immediately placed in their preferred CPP chamber for 2 h. […] 24 h after the completion of the pairing experiments, mice were placed in the CPP test box with access to both chambers and behavior was recorded for 15 minutes and analyzed using the ANY-Maze software for chamber preference. CPP score was calculated as the inverse of the time spent in the preferred chamber according to: [post-preference (sec)—pre-preference (sec)]. Vehicle served as a negative control for these experiments, while morphine (three trials/naïve mice) or clonidine (single trial/ongoing pain) served as positive controls.

[3] = tested on: naïve mice; assay: Conditioned place preference (CPP) assay in naïve mice; settings: i.t., morphine 2 nmol, DMXAA or ADU-S100 35 nmol
Method: as §1

[4] = tested on: mice with intrafemoral Lewis lung carcinoma (LLC); assay: Open field test in LLC bone cancer model; type: in vivo, mouse; settings: d14 after tumor inoculation
Method: (§2) Behavior tests. All the behavioral tests were conducted in a blinded manner and performed during between the hours of 9:00-16:00. Animals were habituated in a light and humidity controlled testing environment for at least 2 days prior to baseline testing. For Von Frey testing, mice were confined to individual 5×5 cm boxes placed on an elevated wire grid. A blinded experimenter stimulated their hindpaws using a series of von Frey filaments with logarithmically increasing stiffness (0.02-2.56 g, Stoelting). Each filament was applied perpendicularly to the central plantar surface. The 50% paw withdrawal threshold was determined using Dixon's up-down method. In addition, we also measured paw withdrawal frequency to repeated stimulation (10 times, with ˜1-2 minutes between each stimulation) using a subthreshold 0.16 g von Frey filament, which is a more sensitive method to detect mechanical allodynia. […] To measure locomotor function, we performed open field testing in which mice were placed in the center of a 45×45 cm chamber and locomotor activity was recorded by an overhead webcam connected to a laptop computer, and animals' movements were automatically tracked for 30 minutes using ANY-Maze. The total distance traveled and mean speed during the 30-minute period were analyzed.

[5] = tested on: female C57BL/6 mice with intrafemoral E0771 breast carcinoma; assay: E0771 breast cancer-induced bone cancer pain model; type: in vivo, mouse; settings: for bone destruction scored from X-ray images: E0771-bearing femora; for body weight / mechanical allodynia, cold allodynia and spontaneous pain: E0771 model
Method: Bone cancer pain model. The murine cell lines LLC1, LL/2-Luc2 or E0771 were lightly digested using 0.05% trypsin, followed by centrifugation to remove poorly digested cell clusters. Cells were then resuspended in PBS at a concentration of 1×10^8 cells/ml. The inoculation was performed as previously described (Wang, K. et al. “PD-1 blockade inhibits osteoclast formation and murine bone cancer pain.” The Journal of clinical investigation, (2020); Wang, Z. et al. “Anti-PD-1 treatment impairs opioid antinociception in rodents and nonhuman primates.” Sci Transl Med 12 (2020)). Briefly, mice were anesthetized with 4% isoflurane and the left leg was shaved and the skin disinfected with 10% povidone-iodine and 75% ethanol. A superficial incision (0.5-1 cm) was made near the knee joint, exposing the patellar ligament. A new 25-gauge needle was inserted at the site of the intercondylar notch of the left femur into the femoral cavity, which was then replaced with a 10 μL microinjection syringe containing a 2 μL suspension of tumor cells (2×10^5) followed by 2 μL absorbable gelatin sponge solution to seal the injection site. The syringe contents were slowly injected into the femoral cavity over a 2-minute interval. To prevent further leakage of tumor cells outside of the bone cavity, the outer injection site was sealed with silicone adhesive (Kwik-Sil, World Precision Instruments, US). Animals with surgery related movement dysfunction or with outside bone tumor injection were excluded from the study.
as §2, with “allodynia. To measure cold allodynia, mice were similarly isolated to individual boxes on an elevated mesh floor, and a drop (˜20-30 μl) of acetone was applied to the plantar hindpaw.” for “allodynia.”
In vivo X-ray radiography. Osteolytic bone destruction was continuously evaluated by radiography using the MultiFocus by Faxitron system (Faxitron Bioptics LLC, Tucson, Ariz.). Radiographs of tumor-bearing femora were rated for bone destruction on a 0-5 score scale based on previous study: 0 for normal bone at baseline without tumor inoculation; 1 for one to three radiolucent lesions indicative of bone destruction compared to baseline; 2 for increased number of lesions (three to six lesions) and loss of medullary bone; 3 for loss of medullary bone and erosion of cortical bone; 4 for full-thickness unicortical bone loss; 5 for full-thickness bicortical bone loss and displaced skeletal fracture. All radiographic image quantifications were completed by an experimenter who was blinded to the experimental conditions.
STING agonist treatment protects against breast cancer induced bone pain and bone destruction. […]

[6] = tested on: RAW 264.7 cells; assay: In vitro osteoclastogenesis, RANKL-treated RAW 264.7 cells, TRAP staining; type: cell-based, mouse; settings: RANKL 35 ng/ml, 6 days, escalating dose
Method: In vitro induction of osteoclastogenesis and TRAP staining. For in vitro drug treatment, the RAW 264.7 cells were incubated with 35 ng/ml RANKL for six days. Isolated bone marrow cells were cultured overnight in α-MEM media containing 10% fetal bovine serum and 1% antibiotic-antimycotic solution. The suspended cells were collected and incubated with 20 ng/ml MCSF for 3 days to obtain bone marrow-derived macrophage (BMDM). The attached cells were further activated by 35 ng/ml RANKL and 20 ng/ml MCSF. Drug treatment was performed in tandem with RANKL. Culture medium and co-cultured reagents were changed every 3 days. After 6 or 7 days of incubation, the cells were fixed by 4% PFA and stained with warm TRAP staining solution (TRAP kit, Sigma-Aldrich, SLBW4002) for 10-30 min at 37° C.

In the case of `Nc1ncnc2c1ncn2[C@@H]1O[C@@H]2COP(=O)([S-])O[C@@H]3[C@H](O)[C@@H](COP([O-])(=S)O[C@H]2[C@H]1O)O[C@H]3n1cnc2c(N)ncnc21.[Na+].[Na+]` (stereo partly drawn) [ADU-S100, (2′-5′)-[P(R)]-5′-O-[(R)-hydroxymercaptophosphinyl]-P-thioadenylyl-adenosine cyclic dinucleotide], the “IFN-β levels in the culture medium” value [1] is reported as “drastic increase in IFN-α and IFN-β levels”, the “conditioned place preference (ongoing pain)” value [2] is reported as “induced CPP in both models” and the “conditioned place preference, single pairing” value [2] is reported as “induced comparable CPP as clonidine”. The “conditioned place preference, repeated pairing” value [3] was “neither DMXAA nor ADU-S100 could induce place preference”, the “open field distance and speed of movement” value [4] was “increased overall distance of movement and increased speed of movement” and the “bone destruction scored from X-ray images” value [5] was “could also attenuate bone destruction”. The body weight [5] was “had no effect on body weight”, the “mechanical allodynia, cold allodynia and spontaneous pain” value [5] was “could markedly reduce mechanical allodynia, cold allodynia and spontaneous pain” and the osteoclast differentiation [6] was “dose dependently inhibited osteoclast differentiation”.

With `Cc1ccc2c(=O)c3cccc(CC(=O)O)c3oc2c1C` [DMXAA, 2-(5,6-dimethyl-9-oxo-9H-xanthen-4-yl)acetic acid] the “IFN-β levels in the culture medium” value [1] was “drastic increase in IFN-α and IFN-β levels”, the “conditioned place preference (ongoing pain)” value [2] was “induced CPP in both models” and the “conditioned place preference, single pairing” value [2] was “induced comparable CPP as clonidine”. For the same compound, the “conditioned place preference, repeated pairing” value [3] was “neither DMXAA nor ADU-S100 could induce place preference”, the “open field distance and speed of movement” value [4] was “greater overall distance of movement and increased speed of movement” and the “bone destruction scored from X-ray images” value [5] was “could also attenuate bone destruction”. The body weight [5] was “had no effect on body weight”, the “mechanical allodynia, cold allodynia and spontaneous pain” value [5] was “could markedly reduce mechanical allodynia, cold allodynia and spontaneous pain” and the osteoclast differentiation [6] was “dose dependently inhibited osteoclast differentiation”.

Reference: patent US20230158057A1, “COMPOSITIONS AND METHODS FOR THE TREATMENT OF PAIN” (Duke University, priority 2020, published 2023)
